Assays:
rats = test: Training-induced bradycardia in rats; type: in vivo, rat
horses [1] = test: Heart rate during treadmill exercise training with oral L-carnitine supplementation; type: in vivo, horse
[2] = LC concentration in M. glutaeus med. muscle biopsies; type: in vivo, horse; conditions: horses
Source text: LC was obtained as commercially available free L-carnitine (Carniking® from Lonza Ltd.). After a first standardised exercise test (SET) during the whole experiment period (5 weeks training, 15 weeks detraining) a group of 4 Trotters received 10 g of LC/d offered with concentrate in two feed portions daily, as essentially described in example 1, while a group of 4 Trotters served as non-supplemented controls. All horses were two years old and were descendants from 1 stallion. The treadmill training program consisted of 8 aerobic, static exercise sessions (15 min warmup, 60 min exercise at an intensity level which maintained a blood lactate concentration of 2.0 mmol/l (VLA 2.0)) and 8 anaerobic exercise sessions (15 min, warm up, followed by 15 steps of graded exercise intensities of 1 min duration each, starting at VLA 4.0). During the dynamic exercises running speed was incremented every minute by 0.3 m/s and ranged from about of 5 m/s to 14 m/s. […]
Muscle biopsies from M. glutaeus med. and venous blood samples were collected at the beginning (1st SET) and the end of training (2nd SET) and at the beginning and the end of the 1st (beginning of training) and 8th (end of training) static and dynamic exercise and after 5 and 10 weeks of detraining. […] Heart rates were continuously monitored during exercises with a polar horse tester.

swine = test: Training-induced bradycardia in swine; type: in vivo
horses [3] = test: Plasma glucose and blood lactate during standardised exercise test (SET); type: in vivo, horse; conditions: 10 g LC/d

C[N+](C)(C)C[C@H](O)CC(=O)[O-] [L-carnitine]
Enhancement of training-induced bradycardia (rats): enhancement of training-induced bradycardia was equally achieved | Heart rate at end of incremented, high intensity (anaerobic) exercise, post-training (horses [1]; N=4, 10 g LC/d, end of 15 steps of +0.3 m/s, after 5 weeks training, mean): 196 beats/min | Heart rate at end of incremented, high intensity (anaerobic) exercise, pre-training (horses [1]; N=4, 10 g LC/d, end of 15 steps of +0.3 m/s, pre-training, mean): 209 beats/min | Heart rate at start of incremented, high intensity (anaerobic) exercise, post-training (horses [1]; N=4, 10 g LC/d, start at VLA 4.0, after 5 weeks training, mean): 143 beats/min | Heart rate at start of incremented, high intensity (anaerobic) exercise, pre-training (horses [1]; N=4, 10 g LC/d, start at VLA 4.0, pre-training, mean): 150 beats/min | Decline of post-training heart rate at equivalent work loads versus start of training (horses [1]; SET, 10 g LC/d for 5 weeks training, FIG. 2): 7 beats/minute | Change in heart rate at increasing exercise work loads, end versus start of training (horses [1]; SET, treadmill speeds 5 to 9 m/s, 10 g LC/d, 5 weeks): significant (p<0.001) reduction in heart rate | Heart rate during moderate intensity (aerobic) exercise, post-training (horses [1]; Trotters N=4, 10 g LC/d oral, 60 min treadmill at VLA 2.0, after 5 weeks training, mean ± SD): 122 ± 6 beats/min | Heart rate during moderate intensity (aerobic) exercise, pre-training (horses [1]; Trotters N=4, 10 g LC/d oral, 60 min treadmill at VLA 2.0, pre-training, mean ± SD): 130 ± 7 beats/min | Elevation of LC concentration in M. glutaeus med. ([2]; 10 g LC/d oral, five weeks of supplementation): about 50% | LC concentration in the muscle during detraining period ([2]; 10 g LC/d, whole detraining period): remained at this high level | Enhancement of training-induced bradycardia (swine): enhancement of training-induced bradycardia was equally achieved | Exercise-induced increase of blood lactate (horses [3]; FIG. 1): lower | Concentration of glucose in plasma during exercise, second SET versus first SET (horses [3]; end of 5 weeks training): lower concentrations of glucose in plasma during exercise

— patent publication US6342526B1, “Method for enhancing or achieving training-induced bradycardia with Carnitine” (Lonza Ltd., priority 2000, dated 2002)
